Among the data in US8975398B2, “NAMPT inhibitors” (AbbVie Inc., priority 2012, dated 2015) are IC50 values, retold here.

The target of experiment [1] is NAMPT (human, recombinant, C-terminally His-tagged) (Homo sapiens, UniProt P43490). The experiment can be described thus: Time-Resolved Fluorescence Resonance Energy Transfer (TR-FRET) Binding Assay of NAMPT. The conditions noted are these: 6.8 nM NAMPT, 200 nM probe, equilibrated 3 hours, absence of substrates. As to the method: Determination of the utility of compounds having Formula (I) as binders to and inhibitors of NAMPT was performed using Time-Resolved Fluorescence Resonance Energy Transfer (TR-FRET) binding assays.
Time-Resolved Fluorescence Resonance Energy Transfer (TR-FRET) Binding Assay of NAMPT
Test compounds were serially diluted (typically 11 half log dilutions) in neat DMSO to 50× final concentrations prior to dilution with assay buffer (50 mM HEPES (NaOH), pH 7.5, 100 mM NaCl, 10 mM MgCl2, 1 mM DTT, 1% Glycerol) to 3× and 6% DMSO. Six μL were transferred to 384-well low-volume plates (Owens Corning #3673). To this, 12 μL of a 1.5× solution containing enzyme, probe and antibody were added. Final concentrations in the 18 μL, reactions were 1× assay buffer, 2% DMSO, 6.8 nM NAMPT (human, recombinant, C-terminally His-tagged), 200 nM probe (a potent nicotinamide-competitive inhibitor conjugated to Oregon Green 488) and 1 nM Tb-anti-His antibody (Invitrogen #PV5895). Reactions were equilibrated at room temperature for 3 hours prior to reading on an Envision multi-label plate reader (Perkin Elmer; Ex=337 nm, Em=520 and 495 nm). Time-resolved FRET ratios (Em520/Em495) were normalized to controls, plotted as a function of compound concentration and fit with the four-parameter logistic equation to determine IC50s.
For orientation: In TR-FRET formats the signal depends on donor and acceptor labels being close together.

Another experiment addresses NAMPT (Homo sapiens, UniProt P43490). The experiment can be described thus: Time-Resolved Fluorescence Resonance Energy Transfer (TR-FRET) Binding Assay of NAMPT with PRPP. The conditions noted are these: 2 nM NAMPT, 2 nM probe, 200 uM PRPP and 2.5 mM ATP, equilibrated 16 hours. The protocol:
Time-Resolved Fluorescence Resonance Energy Transfer (TR-FRET) Binding Assay of NAMPT with PRPP
Compound handling and data processing were identical to the assay in the absence of substrates (above). Final concentrations were 1× assay buffer, 2% DMSO, 2 nM NAMPT, 2 nM probe, 1 nM Tb-anti-His antibody (Invitrogen #PV5895), 200 uM PRPP and 2.5 mM ATP. Reactions were equilibrated for 16 hours prior to measurement to allow for potential enzymatic modification of test compounds.

Sequence of NAMPT (human, recombinant, C-terminally His-tagged) (P43490 whole entry): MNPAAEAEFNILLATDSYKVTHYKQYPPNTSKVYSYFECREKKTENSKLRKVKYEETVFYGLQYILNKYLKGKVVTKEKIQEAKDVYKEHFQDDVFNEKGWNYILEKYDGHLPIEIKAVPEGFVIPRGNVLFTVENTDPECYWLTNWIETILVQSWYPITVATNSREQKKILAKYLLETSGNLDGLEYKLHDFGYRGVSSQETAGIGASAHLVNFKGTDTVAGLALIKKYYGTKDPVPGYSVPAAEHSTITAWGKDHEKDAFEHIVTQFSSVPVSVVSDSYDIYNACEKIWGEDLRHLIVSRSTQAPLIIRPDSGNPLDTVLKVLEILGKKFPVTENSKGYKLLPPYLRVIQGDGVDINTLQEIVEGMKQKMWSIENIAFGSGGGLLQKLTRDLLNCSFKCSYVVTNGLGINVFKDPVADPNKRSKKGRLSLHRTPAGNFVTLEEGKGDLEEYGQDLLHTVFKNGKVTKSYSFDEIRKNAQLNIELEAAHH
Sequence of NAMPT (P43490 whole entry): as above

In the case of `CC(C)(O)C(=O)N1CCC(c2ccc(NC(=O)C3CN(c4cccnc4)C3)cc2)CC1` [Example 20, N-{4-[1-(2-hydroxy-2-methylpropanoyl)piperidin-4-yl]phenyl}-1-(pyridin-3-yl)azetidine-3-carboxamide], the IC50 came out at 6.74 nM in experiment [1] and 0.296 nM on NAMPT.
For `O=C(NC1CN(c2cccnc2)C1)c1ccc(OC2CCN(C(=O)CC3CCOCC3)CC2)cc1` [Example 21, N-[1-(pyridin-3-yl)azetidin-3-yl]-4-{[1-(tetrahydro-2H-pyran-4-ylacetyl)piperidin-4-yl]oxy}benzamide] the same measures were 7380 nM and 0.507 nM.
For the compound `CC[C@H](C)C(=O)N1CCC(c2ccc(NC(=O)C3CN(c4cccnc4)C3)cc2)CC1` [Example 22, N-(4-{1-[(2S)-2-methylbutanoyl]piperidin-4-yl}phenyl)-1-(pyridin-3-yl)azetidine-3-carboxamide], the IC50 in experiment [1] was 11.7 nM; on NAMPT, 0.169 nM.
On the same counts, the results for `CC[C@H](C)C(=O)N1CCC(Oc2ccc(C(=O)NC3CN(c4cccnc4)C3)cc2)CC1` [Example 23, 4-({1-[(2S)-2-methylbutanoyl]piperidin-4-yl}oxy)-N-[1-(pyridin-3-yl)azetidin-3-yl]benzamide] are 1950 nM and 0.61 nM.
Consider `CC(C)(O)C(=O)N1CCC(Oc2ccc(C(=O)NC3CN(c4cccnc4)C3)cc2)CC1` [Example 24, 4-{[1-(2-hydroxy-2-methylpropanoyl)piperidin-4-yl]oxy}-N-[1-(pyridin-3-yl)azetidin-3-yl]benzamide], for which the IC50 in experiment [1] was 5880 nM; at NAMPT it was 0.861 nM.
On the same counts, the results for `O=C(Nc1ccc(C2CCN(C(=O)CC3CCOCC3)CC2)cc1)C1CN(c2cccnc2)C1` [Example 25, 1-(pyridin-3-yl)-N-{4-[1-(tetrahydro-2H-pyran-4-ylacetyl)piperidin-4-yl]phenyl}azetidine-3-carboxamide] are 28.1 nM and 0.598 nM.
On the same counts, the results for `O=C(Nc1ccc(C2CCN(C(=O)c3ccccc3)CC2)cc1)C1CN(c2cccnc2)C1` [Example 26, N-[4-(1-benzoylpiperidin-4-yl)phenyl]-1-(pyridin-3-yl)azetidine-3-carboxamide] are 5.05 nM and 0.761 nM.
Turning to `Cc1ncccc1N1CC(C(=O)Nc2ccc(C3CCN(C(=O)C(C)C)CC3)cc2)C1` [Example 29, N-{4-[1-(2-methylpropanoyl)piperidin-4-yl]phenyl}-1-(2-methylpyridin-3-yl)azetidine-3-carboxamide], the results for the IC50 (in experiment [1]; on NAMPT) were 79.8 nM and 16.7 nM, respectively.
As for `CC(C)C(=O)N1CCC(c2ccc(NC(=O)C3CN(c4cccnc4)C3)cc2)CC1` [Example 30, N-{4-[1-(2-methylpropanoyl)piperidin-4-yl]phenyl}-1-(pyridin-3-yl)azetidine-3-carboxamide], the values for the IC50 (in experiment [1]; at NAMPT) were 15 nM and 0.267 nM, respectively.
On the same counts, the results for `CC(C)(O)C(=O)N1CCC(Oc2ccc(NC(=O)C3CN(c4cccnc4)C3)cc2)CC1` [Example 31, N-(4-{[1-(2-hydroxy-2-methylpropanoyl)piperidin-4-yl]oxy}phenyl)-1-(pyridin-3-yl)azetidine-3-carboxamide] are 135 nM and 0.693 nM.
As to `CC[C@H](C)C(=O)N1CCC(Oc2ccc(NC(=O)C3CN(c4cccnc4)C3)cc2)CC1` [Example 32, N-[4-({1-[(2S)-2-methylbutanoyl]piperidin-4-yl}oxy)phenyl]-1-(pyridin-3-yl)azetidine-3-carboxamide], the IC50 was determined as 10.2 nM in experiment [1] and 0.284 nM at NAMPT.
For `O=C(Nc1ccc(OC2CCN(C(=O)[C@@H]3CCCO3)CC2)cc1)C1CN(c2cccnc2)C1` [Example 33, 1-(pyridin-3-yl)-N-[4-({1-[(2S)-tetrahydrofuran-2-ylcarbonyl]piperidin-4-yl}oxy)phenyl]azetidine-3-carboxamide] the same measures were 109 nM and 0.342 nM.
`CCCCC(=O)N1CCC(Oc2ccc(NC(=O)C3CN(c4cccnc4)C3)cc2)CC1` [Example 34, N-{4-[(1-pentanoylpiperidin-4-yl)oxy]phenyl}-1-(pyridin-3-yl)azetidine-3-carboxamide]: the IC50 was found to be 71.4 nM in experiment [1] and 0.886 nM on NAMPT.
For `CC1CC1C(=O)N1CCC(Oc2ccc(NC(=O)C3CN(c4cccnc4)C3)cc2)CC1` (stereo not shown) [Example 35, N-[4-({1-[(2-methylcyclopropyl)carbonyl]piperidin-4-yl}oxy)phenyl]-1-(pyridin-3-yl)azetidine-3-carboxamide] the same measures were 91.6 nM and 0.866 nM.
As for `O=C(Nc1ccc(OC2CCN(C(=O)CC3C[C@@H]4CC[C@H]3C4)CC2)cc1)C1CN(c2cccnc2)C1` (stereo partly drawn) [Example 36, N-[4-({1-[(1S,4R)-bicyclo[2.2.1]hept-2-ylacetyl]piperidin-4-yl}oxy)phenyl]-1-(pyridin-3-yl)azetidine-3-carboxamide], the IC50 came to 40.1 nM in experiment [1] and 0.882 nM on NAMPT.
For `CC(C)CCC(=O)N1CCC(Oc2ccc(NC(=O)C3CN(c4cccnc4)C3)cc2)CC1` [Example 37, N-(4-{[1-(4-methylpentanoyl)piperidin-4-yl]oxy}phenyl)-1-(pyridin-3-yl)azetidine-3-carboxamide] the same measures were 68.9 nM and 0.983 nM.
For `CCC(C)CC(=O)N1CCC(Oc2ccc(NC(=O)C3CN(c4cccnc4)C3)cc2)CC1` (stereo not shown) [Example 38, N-(4-{[1-(3-methylpentanoyl)piperidin-4-yl]oxy}phenyl)-1-(pyridin-3-yl)azetidine-3-carboxamide] the same measures were 46.5 nM and 0.9 nM.
Take `CCOCCC(=O)N1CCC(Oc2ccc(NC(=O)C3CN(c4cccnc4)C3)cc2)CC1` [Example 39, N-(4-{[1-(3-ethoxypropanoyl)piperidin-4-yl]oxy}phenyl)-1-(pyridin-3-yl)azetidine-3-carboxamide]: the IC50 is 104 nM in experiment [1] and 1.05 nM at NAMPT.
On the same counts, the results for `CCC(C)(C)C(=O)N1CCC(Oc2ccc(NC(=O)C3CN(c4cccnc4)C3)cc2)CC1` [Example 40, N-(4-{[1-(2,2-dimethylbutanoyl)piperidin-4-yl]oxy}phenyl)-1-(pyridin-3-yl)azetidine-3-carboxamide] are 42.8 nM and 0.49 nM.
`CC(C)(C)CC(=O)N1CCC(Oc2ccc(NC(=O)C3CN(c4cccnc4)C3)cc2)CC1` [Example 41, N-(4-{[1-(3,3-dimethylbutanoyl)piperidin-4-yl]oxy}phenyl)-1-(pyridin-3-yl)azetidine-3-carboxamide]: the IC50 in experiment [1] worked out at 69.2 nM; at NAMPT, 0.78 nM.
On the same counts, the results for `CC(C)(C)C(=O)N1CCC(Oc2ccc(NC(=O)C3CN(c4cccnc4)C3)cc2)CC1` [Example 42, N-(4-{[1-(2,2-dimethylpropanoyl)piperidin-4-yl]oxy}phenyl)-1-(pyridin-3-yl)azetidine-3-carboxamide] are 226 nM and 2.39 nM.
For `CCCC(=O)N1CCC(Oc2ccc(NC(=O)C3CN(c4cccnc4)C3)cc2)CC1` [Example 43, N-{4-[(1-butanoylpiperidin-4-yl)oxy]phenyl}-1-(pyridin-3-yl)azetidine-3-carboxamide], the IC50 in experiment [1] is 86.5 nM; on NAMPT, 0.803 nM.
On the same counts, the results for `CCOCC(=O)N1CCC(Oc2ccc(NC(=O)C3CN(c4cccnc4)C3)cc2)CC1` [Example 44, N-(4-{[1-(ethoxyacetyl)piperidin-4-yl]oxy}phenyl)-1-(pyridin-3-yl)azetidine-3-carboxamide] are 138 nM and 1.01 nM.
On the same counts, the results for `CC(C)CC(=O)N1CCC(Oc2ccc(NC(=O)C3CN(c4cccnc4)C3)cc2)CC1` [Example 45, N-(4-{[1-(3-methylbutanoyl)piperidin-4-yl]oxy}phenyl)-1-(pyridin-3-yl)azetidine-3-carboxamide] are 87.3 nM and 1.08 nM.
On to `CC(C)C(=O)N1CCC(Oc2ccc(NC(=O)C3CN(c4cccnc4)C3)cc2)CC1` [Example 46, N-(4-{[1-(2-methylpropanoyl)piperidin-4-yl]oxy}phenyl)-1-(pyridin-3-yl)azetidine-3-carboxamide], for which the IC50 in experiment [1] was found to be 93.4 nM; at NAMPT, 1.02 nM.
On the same counts, the results for `CC(=O)N[C@@H](CC(C)C)C(=O)N1CCC(Oc2ccc(NC(=O)C3CN(c4cccnc4)C3)cc2)CC1` [Example 47, N-(4-{[1-(N-acetyl-L-leucyl)piperidin-4-yl]oxy}phenyl)-1-(pyridin-3-yl)azetidine-3-carboxamide] are 80.5 nM and 1.78 nM.

In general, IC50 refers to the concentration needed to halve the response being measured.
